# Assay results: ChEMBL document CHEMBL1221410, “Antioxidant flavone glycosides from the leaves of Fargesia robusta” (J Nat Prod, 2010)
# Columns and labels:
# [1] = Antioxidant activity against AAPH-induced lipid peroxidation assessed as trolox equivalent of peroxy radical scavenging activity after 10 mins by ORAC assay; type: functional
# [2] = Antioxidant activity assessed as trolox equivalent of ABTS radical scavenging activity after 12 to 16 hrs by spectrophotometry; type: functional
compound,measurement,setting,value
C[C@H]1O[C@@H](c2c(O)cc3oc(-c4ccc(O[C@@H]5O[C@H](CO)[C@@H](O)[C@H](O)[C@H]5O)c(O)c4)cc(=O)c3c2O)C[C@H](O)[C@H]1O,Activity,[1],8.3
same,Activity,[2],0.075
COc1cc(-c2cc(=O)c3c(O[C@@H]4O[C@H](CO)[C@@H](O)[C@H](O)[C@H]4O)cc(O)cc3o2)cc(OC)c1O,Activity,[1],18.2
same,Activity,[2],0.063
C[C@H]1O[C@@H](c2c(O[C@@H]3O[C@H](CO)[C@@H](O)[C@H](O)[C@H]3O)cc3oc(-c4ccc(O)c(O)c4)cc(=O)c3c2O)C[C@H](O)[C@H]1O,Activity,[1],26.8
same,Activity,[2],0.332
O=c1c(O)c(-c2ccc(O)c(O)c2)oc2cc(O)cc(O)c12,Activity,[1],8.7
same,Activity,[2],3.99
O=c1cc(-c2ccc(O)c(O)c2)oc2cc(O)c([C@@H]3O[C@H](CO)[C@@H](O)[C@H](O)[C@H]3O)c(O)c12,Activity,[1],66.5
same,Activity,[2],1.56
C[C@@H]1O[C@@H](O[C@@H]2C(=O)[C@H](O)[C@@H](C)O[C@H]2c2c(O)cc3oc(-c4ccc(O)c(O)c4)cc(=O)c3c2O)[C@H](O)[C@H](O)[C@H]1O,Activity,[1],5.7
same,Activity,[2],0.646
